Assay results from patent US20080293583A1, “Methods for diagnosing mood disorders” (Wyeth, priority 2003, published 2008).

Key:
Type in all cases: in vivo
[1] = test system: Glutathione S-Transferase Yb3; assay: 2-DE proteome analysis of rat hippocampus: Glutathione S-Transferase Yb3; details: rat hippocampus cytosolic extract, 10 mg/kg i.p. daily 14 days, vs control; gel spot 56
Protocol: (§1) Animal dosing. Adult male Sprague Dawley rats weighing 230-320 g were housed with ad libitum access to food and water. After 1 week of habituation, rats were administered either an antidepressant or vehicle alone. The following drugs were administered intraperitoneally (i.p.): fluoxetine (10 mg/kg daily), venlafaxine (10 mg/kg daily) or vehicle alone (1 ml/kg normal saline daily) for 14 days (n=3 rats per group).
(§2) Sample preparation and cytosolic protein extraction. The animals were euthanized and hippocampi were rapidly dissected from the whole brain. Samples from each treatment group were pooled and stored at −85° C. Cytosolic extracts were prepared using the universal extraction kit from Sigma (prot-two) as follows: soluble cytoplasmic extraction reagent (S2688) was added to the hippocampal tissue (10 ml/250 mg wet weight). […]
(§3) Two-dimensional gel electrophoresis. […] Molecular masses were determined by running standard protein markers (Genomic Solutions Inc.), covering the range 10-200 kDa as well as internal verification via landmark proteins within the gel. […]
(§4) Protein fixation, silver staining and 2-D gel comparisons. […] Protein spots were outlined (first automatically and then manually) and quantified using the HT analyzer v2.2 software (Genomic Solutions Inc.). The software calculated the relative spot volume of the proteins compared with the total amount of protein in the gel. […]

[2] = test system: 60S Ribosomal Protein L35A; assay: 2-DE proteome analysis of rat hippocampus: Ribosomal Protein L35A; details: rat hippocampus cytosolic extract, 10 mg/kg i.p. daily 14 days, vs control; gel spot 92
Protocol: as §1, §2, §3, §4

[3] = test system: L-Lactate Dehydrogenase B Chain; assay: 2-DE proteome analysis of rat hippocampus: L-Lactate Dehydrogenase B Chain; details: rat hippocampus cytosolic extract, 10 mg/kg i.p. daily 14 days, vs control; gel spot 23
Protocol: as §1, §2, §3, §4

Compound	Fold change, Glutathione S-Transferase Yb3 [1] [Fold change]	Fold change, 60S Ribosomal Protein L35A [2] [Fold change]	Fold change, L-Lactate Dehydrogenase B Chain [3] [Fold change]
CNCCC(Oc1ccc(C(F)(F)F)cc1)c1ccccc1 (stereo not drawn) [Fluoxetine, fluoxetine]	0.5	2.2	2.5
COc1ccc(C(CN(C)C)C2(O)CCCCC2)cc1 (stereo not drawn) [Venlafaxine, venlafaxine]	0.5	2.5	2.5
